Our source for the IC50 and IC90 values is patent US20260272936A1, “TREATMENT OF CANCER WITH A PARG INHIBITOR” (858 Therapeutics, Inc., priority 2023, published 2026).

Common to all, as to assay: 6-day cell proliferation, nuclei count
Format in all cases: cell-based

In one assay the test system is FU-97 cells. Conditions: Homo sapiens, Fu97, 144 h. An excerpt:
(§1) The FU-97 (Cat #JCRB1074) human gastric cancer cell line and the Kuramochi (Cat #JCRB0098) and RMUG-S(Cat #IFO50320) human ovarian cancer cell lines were obtained from the National Institutes of Biomedical Innovation, Health and Nutrition's Japanese Collection of Research Bioresources (JCRB) (Ibaraki City, Osaka, Japan). The HCC1419 (Cat #CRL-2326) and HCC1428 (Cat #CRL-2327) human breast cancer cell lines and the NCI-H1650 (Cat #CRL-5883) and NCI-H1792 (Cat #CRL-5895) non-small cell lung cancer cell lines were obtained from ATCC (Manassas, Virginia, USA). The human gastric cancer cell lines GCIY (Cat #RCB0555) and SNU601 (Cat #CSC-C9686L) were obtained from the Riken Bioresource Research Center (Tsukuba, Ibaraki, Japan) and Creative Bioarray (Shirley, NY, USA), respectively. The T025OV ovarian cancer organoid model was developed from a patient-derived xenograft (PDX) model, which was developed from primary serous ovarian carcinoma cells obtained from Discovery Life Sciences (Huntsville, AL, USA, SN #350627149). T026OV organoids were developed from PDX cells obtained from The Jackson Laboratory (Bar Harbor, ME, USA, Cat #TM00335).
(§2) All cell lines were grown in an incubator at 37° C. in 5% CO2. The Kuramochi and SNU-601 cells were cultured in RPMI+glutaMAX™ (Thermo Fisher Scientific, Waltham, MA, USA Cat #74200120) containing 1% penicillin/streptomycin (pen/strep) (Thermo Fisher Scientific Cat #15070-063), and 10% fetal bovine serum (FBS) (Thermo Fisher Scientific Cat #A31605-02). The HCC1419, HCC1428, NCI-H1650, and NCI-H1792 cells were cultured in ATCC-modified RPMI+glutaMAX™ (Thermo Fisher Scientific Cat #A10491-01) containing 1% pen/strep and 10% FBS. The FU-97 cells were cultured in DMEM+glutaMAX™ (Thermo Fisher Scientific, Waltham, MA, USA Cat #10566-016) containing 1% pen/strep, 10% FBS and 0.01 mg/mL bovine insulin (MilliporeSigma, Burlington, MA, USA Cat #10516-5ML). The GCIY cells were cultured in MEM (Thermo Fisher Scientific Cat #11095-080) containing 1% pen/strep and 15% FBS. The RMUG-S cells were cultured in Ham's F12 medium+glutaMAX™ (Thermo Fisher Scientific Cat #31765-035) containing 10% FBS and 1% pen/strep.
(§3) Compound 1 IC50 values for inhibition of cell proliferation were determined by imaging and counting the number of nuclei after compound treatment. Cells were harvested with trypsin (Thermo Fisher Scientific, Cat #25200-056) and plated in black-walled, clear bottom 96-well Corning costar 3603 plates (VWR, Radnor, PA, USA Cat #29444-008) at 7500 cells/well (HCC1428 and HCC1419), 5000 cells/well (Kuramochi, FU-97, SNU-601), 2500 cells/well (RMUG-S, GCIY, NCI-H1650) or 1000 cells/well (NCI-H1792) in 100 μL normal growth media and incubated overnight at 37° C., 5% CO2. The following day, a 1000× Compound 1 concentration curve was prepared by serial dilution of Compound 1 in 100% DMSO. The 1000× Compound 1 concentration curve was diluted 1:200 into growth media to generate a 5× concentration curve in 0.5% DMSO/growth medium before addition of 25 μL of the 5× compound to the wells. Control wells received 25 μL of 0.5% DMSO/media alone (negative control wells) or 50 μM Compound 1 (positive controls; 10 μM Compound 1 final). The plate was mixed gently on a plate shaker, covered with Breathe-Easy biofilm (Diversified Biotech, Cat #BEM-1), and incubated at 37° C., 5% CO2 for 6 days. Following the incubation period, a 125 μL fixation/permeabilization solution containing 8% paraformaldehyde (Fisher Scientific, Cat #50-980-495, part of Thermo Fisher Scientific) and 0.2% Triton X-100 (Thermo Fisher Scientific, Cat #327372500) in PBS was added to each well of the plate, and the plates were incubated at room temperature for 20 min. The solution was aspirated and cells washed by the addition of 100 μL PBS. After aspiration of the PBS, nuclei were stained by the addition of 100 μL 1 μg/mL DAPI (Thermo Fisher Cat #62248) in PBS. […]

The next assay deals with GCIY cells. The settings on record: Homo sapiens, 144 h.
Excerpt: as §1, §2, §3

For a further assay, the system named is HCC1419 cells. The settings on record: Homo sapiens.
Excerpt: as §1, §2, §3

Another assay has as its system HCC1428 cells. Conditions: Homo sapiens.
Excerpt: as §1, §2, §3

In the next assay the test system is Kuramochi cells. The settings on record: Homo sapiens, 144 h.
Excerpt: as §1, §2, §3

In the next assay the test system is NCI-H1650 cells. Conditions: Homo sapiens.
Excerpt: as §1, §2, §3

Another assay has as its system NCI-H1792 cells. Conditions: Homo sapiens.
Excerpt: as §1, §2, §3

For a further assay, the system named is RMUG-S cells. The settings on record: Homo sapiens, 144 h.
Excerpt: as §1, §2, §3

In a further assay the test system is SNU-601 cells. Conditions: Homo sapiens.
Excerpt: as §1, §2, §3

Where [1] appears, read: read-out: IC50 inhibition of proliferation.

Consider `[2H]C([2H])(c1cnn(C)c1)N1C(=O)c2cc(S(=O)(=O)NC3(C)CC3)ccc2N2C1=NC[C@H]2C` [Compound 1, (R)-1-methyl-4-((1-methyl-1H-pyrazol-4-yl)methyl-d2)-N-(1-methylcyclopropyl)-5-oxo-1,2,4,5-tetrahydroimidazo[1,2-a]quinazoline-7-sulfonamide], for which the IC50 in the assay with FU-97 cells (setting [1]) was 178 nM; in the assay with GCIY cells (setting [1]), 28 nM; with HCC1419 cells (HCC1419, 144 h, read-out: IC50 inhibition of proliferation), 50 nM; with HCC1428 cells (HCC1428, 144 h, read-out: IC50 inhibition of proliferation), 131 nM; in the assay on Kuramochi cells (setting [1]) it was 46 nM; with NCI-H1650 cells (NCI-H1650, 144 h, read-out: IC50 inhibition of proliferation), 100 nM. For the same compound, the IC50 with NCI-H1792 cells (NCI-H1792, 144 h, read-out: IC50 inhibition of proliferation) came to 1150 nM; in the assay on RMUG-S cells (setting [1]) it was 75 nM; with SNU-601 cells (SNU-601, 144 h, read-out: IC50 inhibition of proliferation), 149 nM. In addition, the IC90 in the assay on FU-97 cells (FU-97, 6 days, geometric mean, read-out: IC90 inhibition of proliferation) is 833 nM; with GCIY cells (6 days, geometric mean, read-out: IC90 inhibition of proliferation), 125 nM; in the assay on HCC1419 cells (144 h, HCC1419, 6 days, geometric mean, read-out: IC90 inhibition of proliferation), 206 nM; in the assay with HCC1428 cells (144 h, HCC1428, 6 days, geometric mean, read-out: IC90 inhibition of proliferation), 363 nM; in the assay on Kuramochi cells (Kuramochi, 6 days, geometric mean, read-out: IC90 inhibition of proliferation) it was 133 nM; with NCI-H1650 cells (144 h, NCI-H1650, 6 days, geometric mean, read-out: IC90 inhibition of proliferation) it was 320 nM. Besides, the IC90 was determined as 4280 nM with NCI-H1792 cells (144 h, NCI-H1792, 6 days, geometric mean, read-out: IC90 inhibition of proliferation); 208 nM with RMUG-S cells (RMUG-S, 6 days, geometric mean, read-out: IC90 inhibition of proliferation); 539 nM with SNU-601 cells (144 h, SNU-601, 6 days, geometric mean, read-out: IC90 inhibition of proliferation).
